Measurements published in patent publication US9765018B2, “IDO inhibitors” (BRISTOL-MYERS SQUIBB COMPANY, priority 2013, dated 2017).

What was measured:
[1] = target: T1, IDO (Homo sapiens (Human), UniProt P14902); assay: LLE_IDO_ABS_DR (IDO assay, method not described)
[2] = target: T1, IDO; assay: Kynurenine assay in IFN-γ-stimulated Hela cells; type: cell-based; conditions: 20 h, read-out: Hela Kyurenine (IC50)
Procedure, shortened: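 Kynurenine in supernatant is read at 490 nm after Ehrlich reagent (10 min RT), following TCA stop and 30 min at 50° C hydrolysis. Before that, Hela cells in phenol red-free RPMI/10% FBS were co-treated 20 h at 37° C with 100 ng/mL IFN-γ and compound (30 μM top, 3-fold series to 1.5 nM).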

T1 sequence (P14902 whole entry): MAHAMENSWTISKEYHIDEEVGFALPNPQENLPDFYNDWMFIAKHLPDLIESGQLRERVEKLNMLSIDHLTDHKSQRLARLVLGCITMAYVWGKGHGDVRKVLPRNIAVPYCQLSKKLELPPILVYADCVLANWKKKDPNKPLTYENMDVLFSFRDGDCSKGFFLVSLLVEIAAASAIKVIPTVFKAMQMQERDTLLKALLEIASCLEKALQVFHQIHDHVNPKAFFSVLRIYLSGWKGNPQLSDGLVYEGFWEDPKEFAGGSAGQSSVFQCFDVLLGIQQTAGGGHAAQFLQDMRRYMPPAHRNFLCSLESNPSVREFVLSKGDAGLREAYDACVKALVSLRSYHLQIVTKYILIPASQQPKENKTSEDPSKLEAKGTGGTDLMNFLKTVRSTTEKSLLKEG

| SMILES | IC50 [1] | IC50 [2] |
| --- | --- | --- |
| COc1ccc(-c2ccc(Oc3ccccc3C(C)(C)C)c(NC(=O)Nc3ccccc3Cl)c2)c(-c2nnn[nH]2)c1 [Example 192, 1-(4-(2-tert-butylphenoxy)-4′-methoxy-2′-(1H-tetrazol-5-yl)biphenyl-3-yl)-3-(2-chlorophenyl)urea] | 1.44 µM | 0.37 µM |
| COc1ccc(-c2ccc(Oc3c(C)cccc3C(C)(C)C)c(NC(=O)Nc3cccc(C)c3)c2)cc1C(=O)O [Example 60, 4′-(2-tert-butyl-6-methylphenoxy)-4-methoxy-3′-(3-m-tolylureido)biphenyl-3-carboxylic acid] | 1.15 µM | 0.31 µM |
| Cc1ccc(NC(=O)Nc2cc(-c3ccc(C(=O)O)nc3)ccc2Oc2ccccc2C(C)(C)C)cc1 [Example 178, 5-(4-(2-tert-butylphenoxy)-3-(3-p-tolylureido)phenyl)picolinic acid] | 1.74 µM | 0.89 µM |
| Cc1ccc(NC(=O)Nc2cc(-c3cccc(Cl)c3C(=O)O)ccc2Oc2ccccc2C(C)(C)C)cc1 [Example 174, 4′-(2-tert-butylphenoxy)-3-chloro-3′-(3-p-tolylureido)biphenyl-2-carboxylic acid] | 0.32 µM | 0.28 µM |
| C=CC(c1ccccc1)c1cc(-c2ccccc2-c2nnn[nH]2)cc(NC(=O)Nc2ccc(C)cc2)c1OCC(C)C (stereo not shown) [Example 299] | 0.1 µM | – |
| CCCOc1c(NC(=O)Nc2ccc(C3CC3)cc2)cc(-c2ccccc2-c2nnn[nH]2)cc1C1CC1 [Example 276, 1-(5-cyclopropyl-4-propoxy-2′-(1H-tetrazol-5-yl)-[1,1′-biphenyl]-3-yl)-3-(4-cyclopropylphenyl)urea] | 0.69 µM | – |
| CCCC(Oc1ccc(-c2ccccc2-c2nnn[nH]2)cc1NC(=O)Nc1ccc(C)cc1)c1ccc(Cl)cc1 (stereo not shown) [Example 308] | 0.86 µM | – |
| Cc1ccc(NC(=O)Nc2cc(-c3ccccc3-c3nnn[nH]3)cc(CC3CC3)c2OCC2CC2)cc1 [Example 324] | 1.07 µM | – |
| Cc1ccc(NC(=O)Nc2cc(-c3ccccc3C(=O)O)ccc2OC(C(C)C)C(C)C)cc1 [Example 10, 4′-((2,4-Dimethylpentan-3-yl)oxy)-3′-(3-(p-tolyl)ureido)-[1,1′-biphenyl]-2-carboxylic acid] | 0.72 µM | – |
| CC(C)C(Oc1ccc(-c2ccccc2-c2nnn[nH]2)cc1NC(=O)Nc1ccccc1F)C(C)C [Example 11, 1-(4-((2,4-Dimethylpentan-3-yl)oxy)-2′-(1H-tetrazol-5-yl)-[1,1′-biphenyl]-3-yl)-3-(2-fluorophenyl)urea] | 0.16 µM | – |
| CC(C)(C)c1ccccc1Oc1ccc(-c2ccc(Cl)cc2-c2nnn[nH]2)cc1NC(=O)Nc1ccccc1Cl [Example 198, 1-(4-(2-tert-butylphenoxy)-4′-chloro-2′-(1H-tetrazol-5-yl)biphenyl-3-yl)-3-(2-chlorophenyl)urea] | 1.49 µM | – |
| Cc1ccc(NC(=O)Nc2cc(-c3ccccc3-c3nnn[nH]3)cc(CC3CC3)c2Oc2ccccc2)cc1 [Example 322] | 0.46 µM | – |
| Cc1ccc(NC(=O)Nc2cc(-c3ccccc3-c3nn[nH]n3)ccc2OC(C(C)C)C(C)C)cc1 [Example 9, 1-(4-((2,4-Dimethylpentan-3-yl)oxy)-2′-(1H-tetrazol-5-yl)-[1,1′-biphenyl]-3-yl)-3-(p-tolyl)urea] | 0.03 µM | – |
| Cc1ccc(NC(=O)Nc2cc(-c3ccc(Cl)cc3-c3nnn[nH]3)ccc2Oc2ccccc2C(C)(C)C)cc1 [Example 199, 1-(4-(2-tert-butylphenoxy)-4′-chloro-2′-(1H-tetrazol-5-yl)biphenyl-3-yl)-3-p-tolylurea] | 0.09 µM | – |
| CCC(Oc1ccc(-c2ccccc2-c2nnn[nH]2)cc1NC(=O)Nc1ccc(C)cc1)c1ccccc1 (stereo not shown) [Example 271] | 0.03 µM | – |
| Cc1ccc(NC(=O)Nc2cc(-c3ccc(F)cc3-c3nnn[nH]3)ccc2Oc2ccccc2C(C)(C)C)cc1 [Example 197, 1-(4-(2-tert-butylphenoxy)-4′-fluoro-2′-(1H-tetrazol-5-yl)biphenyl-3-yl)-3-p-tolylurea] | 0.2 µM | – |
| CCCC(CCC)Oc1ccc(-c2ccccc2-c2nn[nH]n2)cc1NC(=O)Nc1ccc(C)cc1 [Example 13, 1-(4-(Heptan-4-yloxy)-2′-(1H-tetrazol-5-yl)-[1,1′-biphenyl]-3-yl)-3-(p-tolyl)urea] | 0.03 µM | – |
| CCC[C@@H](Oc1ccc(-c2ccccc2-c2nnn[nH]2)cc1NC(=O)Nc1ccc(C)cc1)c1ccccc1 [Example 273] | 0.04 µM | – |

The remaining lines, values ahead:

| IC50 [1] | IC50 [2] | SMILES |
| --- | --- | --- |
| 0.52 µM | 0.4 µM | CCCc1ccccc1Oc1ccc(-c2ccc(OC)c(C(=O)O)c2)cc1NC(=O)Nc1ccccc1Cl [Example 74, 3′-(3-(2-chlorophenyl)ureido)-4-methoxy-4′-(2-propylphenoxy)biphenyl-3-carboxylic acid] |
| 10 µM | 0.44 µM | Cc1ccccc1NC(=O)Nc1cc(-c2cc(Cl)cc(C(=O)O)c2)ccc1Oc1ccccc1C(C)(C)C [Example 238, 4′-(2-tert-butylphenoxy)-5-chloro-3′-(3-o-tolylureido) biphenyl-3-carboxylic acid] |
| 2.56 µM | 0.93 µM | Cc1cccc(NC(=O)Nc2cc(-c3ccc(C(=O)O)c(Cl)c3)ccc2Oc2ccccc2C(C)(C)C)c1 [Example 213, 4′-(2-tert-butylphenoxy)-3-chloro-3′-(3-m-tolylureido) biphenyl-4-carboxylic acid] |
| 3.68 µM | 2.12 µM | Cc1cccc(NC(=O)Nc2cc(-c3ccccc3C(=O)O)ccc2Oc2ccccc2C(C)(C)C)c1 [Example 157, 4′-(2-tert-butylphenoxy)-3′-(3-m-tolylureido)biphenyl-2-carboxylic acid] |
| 2.63 µM | 0.59 µM | COc1ccc(-c2ccc(Oc3ccccc3Cl)c(NC(=O)Nc3ccccc3Cl)c2)cc1C(=O)O [Example 49, 4′-(2-chlorophenoxy)-3′-(3-(2-chlorophenyl)ureido)-4-methoxybiphenyl-3-carboxylic acid] |
| 0.39 µM | 0.15 µM | COc1ccc(-c2ccc(Oc3ccccc3C(C)(C)C)c(NC(=O)Nc3cccc(C)c3)c2)cc1C(=O)O [Example 45, 4′-(2-tert-butylphenoxy)-4-methoxy-3′-(3-m-tolylureido)biphenyl-3-carboxylic acid] |
| 0.25 µM | 0.04 µM | COc1ccc(-c2ccc(Oc3cccc4ccccc34)c(NC(=O)Nc3ccccc3Cl)c2)cc1C(=O)O [Example 128, 3′-(3-(2-chlorophenyl)ureido)-4-methoxy-4′-(naphthalen-1-yloxy)biphenyl-3-carboxylic acid] |
| 0.17 µM | – | C/C=C/Cc1cc(-c2ccccc2C(=O)O)cc(NC(=O)Nc2ccc(C)cc2)c1OCCC [Example 20, (E)-3′-(But-2-en-1-yl)-4′-propoxy-5′-(3-(p-tolyl)ureido)-[1,1′-biphenyl]-2-carboxylic acid] |
| 0.21 µM | – | CCCOc1c(C/C=C/c2ccccc2)cc(-c2ccccc2-c2nnn[nH]2)cc1NC(=O)Nc1ccccc1F [Example 38, (E)-1-(5-Cinnamyl-4-propoxy-2′-(1H-tetrazol-5-yl)biphenyl-3-yl)-3-(2-fluorophenyl)urea] |
| 0.73 µM | – | C=CC(c1ccccc1)c1cc(-c2ccccc2C(=O)O)cc(NC(=O)Nc2ccc(C)cc2)c1OC1CCC(F)(F)CC1 (stereo not shown) [Example 291] |
| 1.1 µM | – | CCCCC(Oc1ccc(-c2cc(F)ccc2C(=O)O)cc1NC(=O)Nc1ccc(C)cc1)C1CCCCC1 (stereo not shown) [Example 269] |
| 0.05 µM | – | CCCOc1c(CCCc2ccccc2)cc(-c2ccccc2-c2nnn[nH]2)cc1NC(=O)Nc1ccccc1F [Example 39, 1-(2-Fluorophenyl)-3-(5-(3-phenylpropyl)-4-propoxy-2′-(1H-tetrazol-5-yl)biphenyl-3-yl)urea] |
| 0.82 µM | – | COc1ccc(-c2ccc(OC(C(C)C)C(C)C)c(NC(=O)Nc3ccccc3F)c2)cc1C(=O)O [Example 12, 4′-((2,4-Dimethylpentan-3-yl)oxy)-3′-(3-(2-fluorophenyl)ureido)-4-methoxy-[1,1′-biphenyl]-3-carboxylic acid] |
| 0.15 µM | – | C/C=C/Cc1cc(-c2cc(F)ccc2C(=O)O)cc(NC(=O)Nc2ccc(C)cc2)c1OCCC [Example 21, (E)-3′-(But-2-en-1-yl)-5-fluoro-4′-propoxy-5′-(3-(p-tolyl)ureido)-[1,1′-biphenyl]-2-carboxylic acid] |
| 0.69 µM | – | CCC(Oc1ccc(-c2cc(F)ccc2C(=O)O)cc1NC(=O)Nc1ccc(C)cc1)c1ccccc1 (stereo not shown) [Example 268] |
| 2.36 µM | – | O=C(Nc1ccc(Cl)cc1)Nc1cc(-c2ccccc2-c2nnn[nH]2)cc(CC2CC2)c1OCCC(F)(F)F [Example 314, 1-(4-chlorophenyl)-3-(5-(cyclopropylmethyl)-2′-(1H-tetrazol-5-yl)-4-(3,3,3-trifluoropropoxy)-[1,1′-biphenyl]-3-yl)urea] |
| 1.66 µM | – | O=C(Nc1ccc(F)cc1F)Nc1cc(-c2ccccc2-c2nnn[nH]2)cc(CC2CC2)c1Oc1ccccc1 [Example 329] |
| 0.82 µM | – | O=C(Nc1ccccc1F)Nc1cc(-c2ccccc2C(=O)O)cc(/C=C/C=C(F)F)c1OCCC(F)(F)F [Example 305] |
| 0.2 µM | – | Cc1ccc(NC(=O)Nc2cc(-c3cc(F)ccc3C(=O)O)ccc2OC(CCC(F)(F)F)c2ccc(Cl)cc2)cc1 (stereo not shown) [Example 311] |
| 0.16 µM | – | C/C=C/Cc1cc(-c2ccccc2-c2nnn[nH]2)cc(NC(=O)Nc2ccc(C)cc2)c1OCc1ccccc1 [Example 25, (E)-1-(4-(Benzyloxy)-5-(but-2-en-1-yl)-2′-(1H-tetrazol-5-yl)-[1,1′-biphenyl]-3-yl)-3-(p-tolyl)urea] |
| 1.38 µM | – | O=C(Nc1ccccc1F)Nc1cc(-c2cc(F)ccc2C(=O)O)cc(C/C=C/C(F)(F)F)c1OCCC(F)(F)F [Example 282] |
| 3.35 µM | – | C=CC(c1ccccc1)c1cc(-c2cc(F)ccc2C(=O)O)cc(NC(=O)Nc2ccc(C)cc2)c1OC1CCC(F)(F)CC1 (stereo not shown) [Example 292] |
| 0.17 µM | – | CCCOc1c(C/C=C/c2ccccc2)cc(-c2ccccc2-c2nnn[nH]2)cc1NC(=O)Nc1ccc(C)cc1 [Example 34, (E)-1-(5-Cinnamyl-4-propoxy-2′-(1H-tetrazol-5-yl)biphenyl-3-yl)-3-p-tolylurea] |
